# ChEMBL document CHEMBL1201862, “PubChem BioAssay data set” (2004)
# Active and inactive are the calls of the source.
# Legend:
# [1] = A cytotoxicity screen of small molecule inhibitors of the PhoP region in Salmonella typhi identified in the primary screen. [Related pubchem assays: 1850, 1864, 1985 ]; assay type: functional
# [2] = target: Sphingosine 1-phosphate receptor 2 (Homo sapiens, UniProt O95136); assay: Dose Response Cell Based Assay for Agonists of the S1P2 Receptor. [Related pubchem assays: 729, 736, 843 ]; assay type: functional
# [3] = target: Glutathione-S-transferase (Schistosoma japonicum, UniProt Q26513); assay: biotin-GST/anti-GST TR-FRET signal inhibitors, dose response, artefact control for Vif-APOBEC3G degradation inhibitor project, biochemical (AID 1117362); assay type: functional
# [4] = target: Transthyretin (Homo sapiens, UniProt P02766); assay: Luminescence-based cell-based high throughput dose response assay to identify activators of Transthyretin (TTR) transcription.; assay type: functional
# [5] = target: E3 ubiquitin-protein ligase Mdm2 (Homo sapiens, UniProt Q00987); assay: enhancers of MDM2-luciferase reporter signal, concentration-effect titration, project on inhibitors of MDM2 ubiquitin ligase, cellular assay, luminescent readout, 384-well plate format (AID 1394); assay type: functional;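 also: MDM2 E3 inhibitors raise luminescence so EC50 is for signal enhancement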
# [6] = target: T1, Tyrosine-protein phosphatase non-receptor type 7 (Homo sapiens, UniProt P35236); assay: inhibitors of human HePTP phosphatase, […], biochemical, absorbance, leukemia target (AID 521); assay type: functional
# T1 sequence (P35236 whole entry): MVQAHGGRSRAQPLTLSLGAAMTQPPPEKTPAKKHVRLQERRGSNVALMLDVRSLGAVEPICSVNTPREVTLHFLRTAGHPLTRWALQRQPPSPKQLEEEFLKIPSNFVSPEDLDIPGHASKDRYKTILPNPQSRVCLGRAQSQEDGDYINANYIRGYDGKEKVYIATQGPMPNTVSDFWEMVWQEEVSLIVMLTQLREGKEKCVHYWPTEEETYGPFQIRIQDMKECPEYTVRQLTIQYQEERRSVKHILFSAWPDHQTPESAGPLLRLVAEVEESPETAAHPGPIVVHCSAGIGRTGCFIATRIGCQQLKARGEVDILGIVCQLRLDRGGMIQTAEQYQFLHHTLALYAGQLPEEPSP
# [7] = target: Mitogen-activated protein kinase 10 (Homo sapiens, UniProt P53779); assay: Dose response biochemical screening assay for inhibitors of c-Jun N-Terminal Kinase 3 (JNK3). [Related pubchem assays: 746 ]
# [8] = target: Major prion protein (Homo sapiens, UniProt P04156); assay type: functional, cell-based
# [9] = cells
# [10] = test system: Vero; assay: cytotoxicity of synthesized analogs in Vero cells, SAR follow-up, cytotoxicity control for West Nile virus antiviral project, cell-based, set II (AID 2402); assay type: functional; details: Chlorocebus sabaeus
# [11] = target: Oxysterols receptor LXR-beta (Homo sapiens, UniProt P55055); assay: LXR agonists, Gal4 luciferase reporter, dose response, counter-screen for ssDAF-12 agonist project, cell-based, luminescence, HEK293, S. stercoralis campaign (AID 720737); assay type: functional; details: read-out: IC50 (the source's name)
# [12] = Luminescence-based cell-based high throughput dose response assay to identify activators of the DAF-12 from the parasite S. stercoralis (ssDAF-12).; assay type: functional
# [13] = cells; assay type: functional, cell-based; details: HEK-CNG
# [14] = target: Galanin receptor type 3 (Homo sapiens, UniProt O60755); assay: Fluorescence-based cell-based primary high throughput dose response assay to identify antagonists of the Galanin Receptor 3 (GalR3).; assay type: functional
# [15] = target: Neuropeptide Y receptor type 1 (Homo sapiens, UniProt P25929); assay: NPY-Y1 receptor antagonist potency, dose response, cell-based (AID 1277); assay type: functional
# [16] = target: T2, Short transient receptor potential channel 4 (Mus musculus, UniProt Q9QUQ5); assay: mouse TRPC4 channel activators, dose response, cell-based, HEK293 TRPC4/mu-opioid, Fluo-4 calcium (AID 434937); assay type: functional
# T2 sequence (Q9QUQ5 whole entry): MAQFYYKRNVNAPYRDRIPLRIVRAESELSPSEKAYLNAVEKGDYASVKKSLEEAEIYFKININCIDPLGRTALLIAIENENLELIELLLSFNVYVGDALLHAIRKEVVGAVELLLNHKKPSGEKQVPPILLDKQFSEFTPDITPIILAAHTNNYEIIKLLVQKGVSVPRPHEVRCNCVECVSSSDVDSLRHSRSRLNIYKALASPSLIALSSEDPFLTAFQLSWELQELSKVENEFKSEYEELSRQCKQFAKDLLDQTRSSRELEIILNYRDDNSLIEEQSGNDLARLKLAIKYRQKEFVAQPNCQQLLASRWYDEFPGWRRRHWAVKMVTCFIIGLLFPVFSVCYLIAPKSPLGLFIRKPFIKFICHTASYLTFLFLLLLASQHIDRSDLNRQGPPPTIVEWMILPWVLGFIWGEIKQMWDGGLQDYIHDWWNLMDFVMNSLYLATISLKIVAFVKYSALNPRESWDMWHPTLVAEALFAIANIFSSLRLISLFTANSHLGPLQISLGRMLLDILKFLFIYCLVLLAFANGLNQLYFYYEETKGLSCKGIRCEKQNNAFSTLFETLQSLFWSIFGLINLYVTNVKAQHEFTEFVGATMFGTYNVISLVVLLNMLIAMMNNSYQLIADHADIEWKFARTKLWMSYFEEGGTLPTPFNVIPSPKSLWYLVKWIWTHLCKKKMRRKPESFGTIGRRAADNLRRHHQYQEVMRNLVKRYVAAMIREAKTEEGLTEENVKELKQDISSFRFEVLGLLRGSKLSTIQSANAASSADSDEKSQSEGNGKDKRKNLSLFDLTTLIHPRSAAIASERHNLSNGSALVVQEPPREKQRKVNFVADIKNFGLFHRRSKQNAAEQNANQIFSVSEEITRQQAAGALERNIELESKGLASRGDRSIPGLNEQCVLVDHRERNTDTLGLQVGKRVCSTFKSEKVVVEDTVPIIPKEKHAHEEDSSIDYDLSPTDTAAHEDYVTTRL
# [17] = target: Neuropeptide Y receptor type 2 (Homo sapiens, UniProt P49146); assay: NPY-Y2 antagonist potency, selectivity check, dose response, counter-screen for NPY-Y1 antagonist project, cell-based (AID 1278); assay type: functional
# [18] = CEM21 cell cytotoxicity, dose response, cytotoxicity control, plate reader, dry powder (AID 687026); assay type: functional, cell-based
# [19] = HIV Env cell-cell fusion inhibitors, dose response, HIV entry, plate reader, dry powder (AID 687023); assay type: functional, cell-based
# [20] = MITF Measured in Cell-Based System Using Plate Reader - 2084-01_Inhibitor_Dose_DryPowder_Activity_Set7.; assay type: functional
# [21] = SK-MEL-5 parental line viability, dose response, MITF inhibitor project, cell-based, CellTiter-Glo, dry powder, set 6 (AID 624429); assay type: functional
# [22] = MITF Measured in Cell-Based System Using Plate Reader - 2084-01_Inhibitor_Dose_DryPowder_Activity_Set6.; assay type: functional
# [23] = SK-MEL-5 parental cell viability reduction, dose response, orthogonal assay for MITF inhibitor project, CellTiter-Glo luminescence, dry powder, set 8 (AID 651586); assay type: functional, cell-based
# [24] = MALME3 melanoma cell viability reduction, dose response, orthogonal assay for MITF inhibitor project, CellTiter-Glo luminescence, dry powder, set 5 (AID 651584); assay type: functional, cell-based; details: MALME-3
# [25] = A375 melanoma cell viability loss, dose response, counter-screen for MITF inhibitor project, CellTiter-Glo luminescence, dry powder, set 4 (AID 624364); assay type: functional, cell-based; details: A-375;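 also: A375 melanoma cells are MITF independent so this is a counter screen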
# [26] = TRPM1 promoter luciferase reporter signal decrease, dose response, MITF inhibitor project, cell-based, SK-MEL-5, dry powder, set 9 (AID 651588); assay type: functional
# [27] = MITF Orthogonal Assay: MALME3 CTG Assay Measured in Cell-Based System Using Plate Reader - 2084-04_Inhibitor_Dose_DryPowder_Activity_Set6.; assay type: functional; details: MALME-3
# [28] = MITF Orthogonal Assay: SK-MEL-5 CTG Assay Measured in Cell-Based System Using Plate Reader - 2084-02_Inhibitor_Dose_DryPowder_Activity_Set5.; assay type: functional
# [29] = target: G-protein coupled receptor 183 (Homo sapiens, UniProt P32249); assay: SAR confirmation of small molecule antagonists of the EBI2 receptor via a luminescent beta-arrestin assa.; assay type: functional
# [30] = P. falciparum Dd2 growth inhibitors, dose response, SYBR Green, cherry-picked samples (AID 1159567); assay type: functional, cell-based
# [31] = P. falciparum ATP4 D1247Y mutant growth inhibitors, dose response, NITD609-resistant line, SYBR Green, dry powder (AID 1159571); assay type: functional, cell-based;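 also: parasites synchronized at ring stage by sorbitol before testing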
# [32] = P. falciparum 3D7-ScDHODH growth inhibitors, dose response, SYBR Green, dry powder samples (AID 1159570); assay type: functional, cell-based;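 also: parasite growth measured after 72 hours of compound exposure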
# [33] = P. falciparum Dd2 growth inhibitors, dose response, SYBR Green, dry powder samples (AID 1159566); assay type: functional, cell-based;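 also: potency for growth inhibition with lower SYBR green DNA signal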
# [34] = HepG2 cell cytotoxicity, dose response, cytotoxicity control, plate reader, dry powder samples (AID 1159569); assay type: functional, cell-based;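 also: inhibitor potency with signal falling toward the positive control level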
# [35] = target: RNA-editing ligase 1, mitochondrial (Trypanosoma brucei brucei, UniProt P86926); assay: TbREL1 ligase inhibitors, dose response, biochemical, fluorescence, Trypanosoma brucei (AID 1117295); assay type: functional
# [36] = target: Phospholipase D1 (Homo sapiens, UniProt Q13393); assay: PLD1 Cellular Concentration Response Study.; assay type: functional
# [37] = target: Phospholipase D2 (Homo sapiens, UniProt O14939); assay: PLD2 Cellular Concentration Response Study.; assay type: functional
# [38] = target: Calcium-dependent protein kinase 1 (Plasmodium falciparum, UniProt P62344); assay: PfCDPK1 kinase inhibitors, biochemical, TCAMS library (AID 1159585); assay type: functional
# [39] = Dose-response inhibition of insulin secretion in a rat insulinoma line at 5 mM glucose (AID 1117331); assay type: functional, cell-based; details: INS-1E
# [40] = cells; assay type: functional, cell-based; details: INS-1E
# [41] = target: T3, Cytochrome P450 1A2 (Homo sapiens, UniProt P05177);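 also: PubChem cytochrome P450 panel assay, CYP1A2 panel member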
# T3 sequence (P05177 whole entry): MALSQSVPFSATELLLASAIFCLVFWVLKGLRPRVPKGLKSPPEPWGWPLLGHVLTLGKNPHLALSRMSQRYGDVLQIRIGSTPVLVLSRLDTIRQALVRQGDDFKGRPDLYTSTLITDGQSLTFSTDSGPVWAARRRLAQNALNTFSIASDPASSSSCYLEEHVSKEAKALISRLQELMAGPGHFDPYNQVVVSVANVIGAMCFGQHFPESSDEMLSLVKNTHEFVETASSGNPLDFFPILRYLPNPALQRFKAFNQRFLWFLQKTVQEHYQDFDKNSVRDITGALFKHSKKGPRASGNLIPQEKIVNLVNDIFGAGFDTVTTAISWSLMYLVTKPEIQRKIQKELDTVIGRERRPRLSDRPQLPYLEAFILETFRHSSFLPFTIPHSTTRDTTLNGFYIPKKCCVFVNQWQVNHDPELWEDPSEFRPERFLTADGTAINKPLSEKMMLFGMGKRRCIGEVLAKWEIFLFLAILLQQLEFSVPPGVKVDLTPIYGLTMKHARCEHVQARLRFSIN
smiles,measurement,setting,value
Cc1cc(Br)ccc1OCCCCNCCO,EC50,[1],> 50 µM (active)
same,EC50,[2],> 50 µM (not active)
O=C(O)C1Cc2ccccc2N2CCCC12 (stereo unspecified),IC50,[3],16.3 µM (active)
O=C(O)c1ccc(CSc2nnc(Cc3ccccc3)o2)cc1,EC50,[4],> 167 µM (inactive)
CN1C(C(=O)NCc2cccc(Br)c2)CC2Cn3c(nc4cc5ccccc5cc43)C21 (stereo unspecified),EC50,[5],11.1 µM (not active)
COc1ccccc1C(=O)Nc1ccccc1C(=O)N1CCCC1,IC50,[6],> 100 µM (not active)
O=C(O)CSc1ccc2ccccc2n1,IC50,[7],> 93.1 µM (not active)
same,IC50,[8],6.89 µM (active)
same,IC50,[9],> 138 µM (inactive)
COc1ccc(-c2csc(N(C)C(=O)c3ccccc3Cl)n2)cc1,CC50,[10],> 50 µM (active)
c1ccc(SCc2nc3ccccc3s2)nc1,EC50,[11],> 67.5 µM (inactive)
same,IC50,[12],> 67.5 µM (inactive)
CC(=O)OCC[N+](C)(C)C,EC50,[13],> 29.9 µM (inactive)
same,IC50,[14],1.66 µM (active)
same,IC50,[15],> 35 µM (not active)
same,EC50,[16],0.0667 µM (active)
same,IC50,[17],> 35 µM (not active)
CCOc1ccc(S(=O)(=O)NCc2ccncc2)cc1OCC,AC50,[18],> 70 µM (inactive)
same,AC50,[19],0.562 µM (active)
NC1=C(NS(=O)(=O)c2ccc(Br)cc2)C(=O)c2ccccc2C1=O,AC50,[20],53.6 µM (active)
same,AC50,[21],> 70 µM (inactive)
same,AC50,[22],41.5 µM (active)
same,AC50,[23],> 70 µM (inactive)
same,AC50,[24],> 70 µM (inactive)
same,AC50,[25],> 70 µM (inactive)
same,AC50,[26],> 70 µM (inactive)
same,AC50,[27],> 70 µM (inactive)
same,AC50,[28],> 70 µM (inactive)
O=C(Cc1ccc(Br)cc1)N1CCN(C(=O)c2ccc(Cl)cc2)CC1,IC50,[29],> 1 µM (inactive)
CC(C)CC#Cc1ccc([C@@H]2[C@H](CO)N3CCCCN(S(=O)(=O)Cc4ccccc4)C[C@@H]23)cc1,AC50,[30],2.3 µM (active)
same,AC50,[31],0.957 µM (active)
same,AC50,[32],1.48 µM (active)
same,AC50,[33],0.805 µM (active)
same,AC50,[34],9.93 µM (active)
C=CCNC1=NC(c2ccc(F)cc2)C(C(=O)OC)=C(C)N1Cc1ccccc1C(F)(F)F (stereo unspecified),IC50,[35],> 96.6 µM (inactive)
O=C(NCCN1CCC2(CC1)C(=O)NCN2Cc1cccc(Cl)c1)c1ccc2ccccc2c1,IC50,[36],2.8 µM (active)
same,IC50,[37],0.25 µM (active)
CC(C)(CN)c1nc(-c2ccc(Cl)c(O)c2)c(-c2ccnc(N)n2)[nH]1,IC50,[38],0.007 µM (active)
CCN(CC)CCOCCOC(=O)C1(c2ccccc2)CCCC1 [CARBETAPENTANE],IC50,[39],7.69 µM (inactive)
same,IC50,[40],> 33.3 µM (inactive)
same,AC50,[41],20 µM (inconclusive)
